{"source": "patent US10442803B2", "about": "“Tricyclic heterocycles as bet protein inhibitors” (Incyte Corporation, priority 2013, dated 2019)", "note": "Counter-ions that a name gives are not always drawn.", "data": [{"system": "KMS.12.BM cells", "test": "KMS.12.BM cell viability assay", "type": "cell-based", "settings": "72 h; KMS.12.BM human myeloma cells, 3 days, Cell Titer-GLO ATP quantitation; read-out: KMS cellular IC50", "procedure,_shortened": "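IC50 derived from luminescent ATP quantitation (Cell Titer-GLO) of viable cells after 3-day compound treatment. KMS.12.BM human myeloma line seeded at 5000 cells/well in RPMI with 10% FBS.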", "units": {"IC50": "nM"}, "values": [{"smiles": "CCNC(=O)c1cc2c(ccc3nnc(C)n32)n1Cc1cccc(Cl)c1", "note": "[Example 113, 6-(3-Chlorobenzyl)-N-ethyl-1-methyl-6H-pyrrolo[2,3-e][1,2,4]triazolo[4,3-a]pyridine-7-carboxamide trifluoroacetate salt]", "IC50": "≤ 1000"}, {"smiles": "Cc1nnc2ccc3c(cc(C(=O)NCC4CC4)n3Cc3cccc(Cl)c3)n12", "note": "[Example 114, 6-(3-Chlorobenzyl)-N-(cyclopropylmethyl)-1-methyl-6H-pyrrolo[2,3-e][1,2,4]triazolo[4,3-a]pyridine-7-carboxamide trifluoroacetate salt]", "IC50": "≤ 1000"}, {"smiles": "Cc1nnc2ccc3c(cc(C(=O)NCCO)n3Cc3cccc(Cl)c3)n12", "note": "[Example 117, 6-(3-Chlorobenzyl)-N-(2-hydroxyethyl)-1-methyl-6H-pyrrolo[2,3-e][1,2,4]triazolo[4,3-a]pyridine-7-carboxamide trifluoroacetate salt]", "IC50": "≤ 1000"}, {"smiles": "Cc1nnc2ccc3c(cc(C(=O)NCCN4CCOCC4)n3Cc3cccc(Cl)c3)n12", "note": "[Example 119, 6-(3-Chlorobenzyl)-1-methyl-N-(2-morpholin-4-ylethyl)-6H-pyrrolo[2,3-e][1,2,4]triazolo[4,3-a]pyridine-7-carboxamide trifluoroacetate salt]", "IC50": "≤ 1000"}, {"smiles": "CCNC(=O)c1cc2c(ccc3nnc(C)n32)n1Cc1cccc(CN2CCC2)c1", "note": "[Example 121, 6-[3-(Azetidin-1-ylmethyl)benzyl]-N-ethyl-1-methyl-6H-pyrrolo[2,3-e][1,2,4]triazolo[4,3-a]pyridine-7-carboxamide bis(trifluoroacetate) salt]", "IC50": "≤ 1000"}, {"smiles": "CNC(=O)c1cc2c(ccc3nnc(C)n32)n1Cc1cccc(CN2CCC2)c1", "note": "[Example 122, 6-[3-(Azetidin-1-ylmethyl)benzyl]-N,1-dimethyl-6H-pyrrolo[2,3-e][1,2,4]triazolo[4,3-a]pyridine-7-carboxamide bis(trifluoroacetate) salt]", "IC50": "1000 to 10000"}, {"smiles": "Cc1nnc2ccc3c(cc(C(=O)NCCCO)n3Cc3ccccc3)n12", "note": "[Example 123, 6-Benzyl-N-(3-hydroxypropyl)-1-methyl-6H-pyrrolo[2,3-e][1,2,4]triazolo[4,3-a]pyridine-7-carboxamide trifluoroacetate salt]", "IC50": "≤ 1000"}, {"smiles": "Cc1nnc2ccc3c(cc(C(=O)NCC(C)C)n3Cc3ccccc3)n12", "note": "[Example 125, 6-Benzyl-N-isobutyl-1-methyl-6H-pyrrolo[2,3-e][1,2,4]triazolo[4,3-a]pyridine-7-carboxamide trifluoroacetate]", "IC50": "≤ 1000"}, {"smiles": "Cc1nnc2ccc3c(cc(C(=O)NCc4ccncc4)n3Cc3ccccc3)n12", "note": "[Example 126, 6-Benzyl-1-methyl-N-(pyridin-4-ylmethyl)-6H-pyrrolo[2,3-e][1,2,4]triazolo[4,3-a]pyridine-7-carboxamide bis(trifluoroacetate) salt]", "IC50": "≤ 1000"}, {"smiles": "Cc1nnc2ccc3c(cc(C(=O)NCCCO)n3Cc3cccc(Cl)c3)n12", "note": "[Example 127, 6-(3-Chlorobenzyl)-N-(3-hydroxypropyl)-1-methyl-6H-pyrrolo[2,3-e][1,2,4]triazolo[4,3-a]pyridine-7-carboxamide trifluoroacetate salt]", "IC50": "≤ 1000"}, {"smiles": "Cc1nnc2ccc3c(cc(C(=O)NCC(C)C)n3Cc3cccc(Cl)c3)n12", "note": "[Example 129, 6-(3-Chlorobenzyl)-N-isobutyl-1-methyl-6H-pyrrolo[2,3-e][1,2,4]triazolo[4,3-a]pyridine-7-carboxamide trifluoroacetate salt]", "IC50": "≤ 1000"}, {"smiles": "Cc1nnc2ccc3c(cc(C(=O)NCc4ccncc4)n3Cc3cccc(Cl)c3)n12", "note": "[Example 130, 6-(3-Chlorobenzyl)-1-methyl-N-(pyridin-4-ylmethyl)-6H-pyrrolo[2,3-e][1,2,4]triazolo[4,3-a]pyridine-7-carboxamide bis(trifluoroacetate) salt]", "IC50": "≤ 1000"}, {"smiles": "CNC(=O)c1cc2c(ccc3nnc(C)n32)n1Cc1cc(Cl)cc(CN2CCC2)c1", "note": "[Example 131, 6-[3-(Azetidin-1-ylmethyl)-5-chlorobenzyl]-N,1-dimethyl-6H-pyrrolo[2,3-e][1,2,4]triazolo[4,3-a]pyridine-7-carboxamide bis(trifluoroacetate) salt]", "IC50": "≤ 1000"}, {"smiles": "CNC(=O)c1cc2c(ccc3nnc(C)n32)n1Cc1cc(Cl)cc(CN2CCCC2)c1", "note": "[Example 132, 6-[3-Chloro-5-(pyrrolidin-1-ylmethyl)benzyl]-N,1-dimethyl-6H-pyrrolo[2,3-e][1,2,4]triazolo[4,3-a]pyridine-7-carboxamide 2.5×(trifluoroacetate) salt]", "IC50": "≤ 1000"}, {"smiles": "CCNC(=O)c1cc2c(ccc3nnc(C)n32)n1Cc1cc(Cl)cc(CN2CCCC2)c1", "note": "[Example 133, 6-[3-Chloro-5-(pyrrolidin-1-ylmethyl)benzyl]-N-ethyl-1-methyl-6H-pyrrolo[2,3-e][1,2,4]triazolo[4,3-a]pyridine-7-carboxamide bis(trifluoroacetate) salt]", "IC50": "≤ 1000"}, {"smiles": "CNC(=O)c1cc2c(ccc3nnc(C)n32)n1Cc1cc(Cl)cc(CN2CCC(F)(F)C2)c1", "note": "[Example 134, 6-{3-Chloro-5-[(3,3-difluoropyrrolidin-1-yl)methyl]benzyl}-N,1-dimethyl-6H-pyrrolo[2,3-e][1,2,4]triazolo[4,3-a]pyridine-7-carboxamide 2.4×(trifluoroacetate) salt]", "IC50": "≤ 1000"}, {"smiles": "CNC(=O)c1cc2c(ccc3nnc(C)n32)n1Cc1cc(Cl)cc(CN2CC(C)(C)C2)c1", "note": "[Example 135, 6-{3-Chloro-5-[(3,3-dimethylazetidin-1-yl)methyl]benzyl}-N,1-dimethyl-6H-pyrrolo[2,3-e][1,2,4]triazolo[4,3-a]pyridine-7-carboxamide bis(trifluoroacetate) salt]", "IC50": "≤ 1000"}, {"smiles": "CNC(=O)c1cc2c(ccc3nnc(C)n32)n1Cc1cccc(C(F)(F)F)c1", "note": "[Example 136, N,1-dimethyl-6-[3-(trifluoromethyl)benzyl]-6H-pyrrolo[2,3-e][1,2,4]triazolo[4,3-a]pyridine-7-carboxamide trifluoroacetate salt]", "IC50": "≤ 1000"}, {"smiles": "CCNC(=O)c1cc2c(ccc3nnc(C)n32)n1Cc1cccc(C(F)(F)F)c1", "note": "[Example 137, N-Ethyl-1-methyl-6-[3-(trifluoromethyl)benzyl]-6H-pyrrolo[2,3-e][1,2,4]triazolo[4,3-a]pyridine-7-carboxamide trifluoroacetate salt]", "IC50": "≤ 1000"}, {"smiles": "CNC(=O)Nc1cc2c(cc(C)n2Cc2cc(Cl)cc(CN3CCCC3)c2)n2c(C)nnc12", "note": "[Example 142, N-{6-[3-Chloro-5-(pyrrolidin-1-ylmethyl)benzyl]-1,7-dimethyl-6H-pyrrolo[2,3-e][1,2,4]triazolo[4,3-a]pyridin-4-yl}-N′-methylurea bis(trifluoroacetate) salt]", "IC50": "≤ 1000"}, {"smiles": "Cc1nnc2ccc3c(cc(-c4ncco4)n3Cc3ccccc3)n12", "note": "[Example 143, 6-benzyl-1-methyl-7-(1,3-oxazol-2-yl)-6H-pyrrolo[2,3-e][1,2,4]triazolo[4,3-a]pyridine trifluoroacetate salt]", "IC50": "≤ 1000"}, {"smiles": "Cc1cc2c(cc(NC3CCOCC3)c3nnc(C)n32)n1Cc1ccccc1", "note": "[Example 146, 6-benzyl-1,7-dimethyl-N-(tetrahydro-2H-pyran-4-yl)-6H-pyrrolo[2,3-e][1,2,4]triazolo[4,3-a]pyridin-4-amine]", "IC50": "1000 to 10000"}, {"smiles": "Cc1cc2c(cc(N[C@@H]3CCOC3)c3nnc(C)n32)n1Cc1ccccc1", "note": "[Example 147, 6-benzyl-1,7-dimethyl-N-[(3R)-tetrahydrofuran-3-yl]-6H-pyrrolo[2,3-e][1,2,4]triazolo[4,3-a]pyridin-4-amine]", "IC50": "1000 to 10000"}, {"smiles": "Cc1cc2c(cc(N[C@H]3CCOC3)c3nnc(C)n32)n1Cc1ccccc1", "note": "[Example 148, 6-benzyl-1,7-dimethyl-N-[(3S)-tetrahydrofuran-3-yl]-6H-pyrrolo[2,3-e][1,2,4]triazolo[4,3-a]pyridin-4-amine]", "IC50": "1000 to 10000"}, {"smiles": "Cc1cc2c(cc(N[C@@H]3CCN(C(=O)OC(C)(C)C)C3)c3nnc(C)n32)n1Cc1ccccc1", "note": "[Example 149, tert-butyl (3R)-3-[(6-benzyl-1,7-dimethyl-6H-pyrrolo[2,3-e][1,2,4]triazolo[4,3-a]pyridin-4-yl)amino]pyrrolidine-1-carboxylate]", "IC50": "1000 to 10000"}, {"smiles": "Cc1cc2c(cc(N[C@H]3CCN(C(=O)OC(C)(C)C)C3)c3nnc(C)n32)n1Cc1ccccc1", "note": "[Example 150, tert-butyl (3S)-3-[(6-benzyl-1,7-dimethyl-6H-pyrrolo[2,3-e][1,2,4]triazolo[4,3-a]pyridin-4-yl)amino]pyrrolidine-1-carboxylate]", "IC50": "1000 to 10000"}, {"smiles": "Cc1cc2c(cc(N[C@@H]3CCNC3)c3nnc(C)n32)n1Cc1ccccc1", "note": "[Example 151, 6-benzyl-1,7-dimethyl-N-[(3R)-pyrrolidin-3-yl]-6H-pyrrolo[2,3-e][1,2,4]triazolo[4,3-a]pyridin-4-amine bis(trifluoroacetate) salt]", "IC50": "≤ 1000"}, {"smiles": "Cc1cc2c(cc(N[C@H]3CCNC3)c3nnc(C)n32)n1Cc1ccccc1", "note": "[Example 152, 6-benzyl-1,7-dimethyl-N-[(3S)-pyrrolidin-3-yl]-6H-pyrrolo[2,3-e][1,2,4]triazolo[4,3-a]pyridin-4-amine bis(trifluoroacetate) salt]", "IC50": "≤ 1000"}, {"smiles": "Cc1cc2c(cc(NC3CCN(C)CC3)c3nnc(C)n32)n1Cc1ccccn1", "note": "[Example 153, 1,7-dimethyl-N-(1-methylpiperidin-4-yl)-6-(pyridin-2-ylmethyl)-6H-pyrrolo[2,3-e][1,2,4]triazolo[4,3-a]pyridin-4-amine]", "IC50": "≤ 1000"}, {"smiles": "Cc1cc2c(cc(NC3CCN(C)CC3)c3nnc(C)n32)n1Cc1cccnc1", "note": "[Example 154, 1,7-dimethyl-N-(1-methylpiperidin-4-yl)-6-(pyridin-3-ylmethyl)-6H-pyrrolo[2,3-e][1,2,4]triazolo[4,3-a]pyridin-4-amine]", "IC50": "≤ 1000"}, {"smiles": "Cc1nnc2ccc3c(cc(-c4ccn[nH]4)n3Cc3cccc(Cl)c3)n12", "note": "[Example 155, 6-(3-chlorobenzyl)-1-methyl-7-(1H-pyrazol-5-yl)-6H-pyrrolo[2,3-e][1,2,4]triazolo[4,3-a]pyridine bis(trifluoroacetate) salt]", "IC50": "≤ 1000"}]}]}
